Laboratory results reported in US12263248B2, “Compounds and compositions for intracellular delivery of therapeutic agents” (ModernaTX, Inc., priority 2018, dated 2025).

What was measured:
luciferase (Luc) mRNA [1] = assay: Luc expression, whole body bioluminescence after intravenous administration to mice; type: in vivo; conditions: for 6 h Lipid/MC3 Avg. Luc Expression / Fold increase AUC Lipid/MC3 / AUC (h * p/s): Table 3C; for 6 h Lipid/MC3 Avg. Luc Expression / Fold increase AUC Lipid/MC3 / AUC (h * p/s) / Fold increase in total body Luc Flux relative to MC3 at 6 h: i.v. administration; for AUC (h * p/s) / AUC (p/s * h): Luc; for Total Flux 3 hours / Total Flux 6 hours / Total Flux 24 hours: Luc mRNA; for Lipid/MC3 AUC / AUC (p/s * h): Table 3D, intravenous; for Fold increase in total body Luc Flux relative to MC3 at 6 h: Table 3A
Outline: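 Luc mRNA nanoparticle formulations given intravenously to mice (n=6) at 0.5 mg/kg; whole-body bioluminescence imaged at 3, 6 and 24 h. CD-1 mice received IP D-luciferin (200 μL of 15 mg/mL) 15 min before imaging; total flux quantified by region of interest.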

[2] = Particle size and polydispersity index of nanoparticle compositions (Zetasizer Nano ZS); type: physicochemical; conditions: Table 1A; for Size (nm): lipid:DSPC:cholesterol:PEG-DMG 50:10:38.5:1.5 mol %
Outline: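 Particle size and PDI were measured on a Zetasizer Nano ZS with the nanoparticle compositions dispersed in 1×PBS.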

[3] = Apparent (surface) pKa of the LNP formulation (TNS assay); type: physicochemical; conditions: Table 1A
Procedure: Using sodium hydroxide (1 M) and hydrochloric acid (1 M), 21 unique buffers were prepared from the master buffer stock at pH values between about 3 and 12. Next, a stock of 300 μM 6-(p-Toluidino)-2-naphthalenesulfonic acid sodium salt (TNS reagent) in DMSO was prepared and the LNP was mixed with the desired formulation buffer at a concentration of 0.04 mg/mL mRNA. This assay has been validated in 1× PBS and 20 mM Tris w/8% sucrose buffer. The buffer solutions at various pH values were added to a 96-well plate in triplicate for each pH. To each well was added 3.26 μL of LNP sample at a mRNA concentration of 0.04 mg/mL and 2.0 μL of 300 μM TNS reagent solution. After careful mixing, the resulting fluorescence values were read for each plate to create a sigmoidal plot of the fluorescence values vs. buffer pH. The […] inflection point of this curve is the apparent pKa of the LNP formulation.

luciferase (Luc) mRNA [4] = assay: Luc expression in liver, lung, spleen and femur 6 hours after intravenous administration; type: in vivo; conditions: mice, 0.5 mpk; for Total Flux Liver / Total Flux Lung / Total Flux Spleen: intravenous
Outline: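 LNP-formulated mRNA given IV to mice (n=3) at 0.5 mpk; at 6 h, bioluminescence imaged ex vivo 15 min after IP D-luciferin (15 mg/mL, 200 μL), organs imaged within 25 min. Values are total flux by region of interest.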

[5] = Encapsulation efficiency of RNA (QUANT-IT RIBOGREEN RNA assay); type: physicochemical; conditions: Table 1A
Outline: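 RiboGreen fluorescence (ex ~480, em ~520 nm) compared between intact samples and Triton X-100-lysed samples after 15 min at 37 °C in TE buffer, pH 7.5. Percent free RNA is the blank-corrected intact/disrupted ratio.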

Row | SMILES | 6 h Lipid/MC3 Avg. Luc Expression (luciferase (Luc) mRNA [1]) | Fold increase AUC Lipid/MC3 (luciferase (Luc) mRNA [1]) | AUC (h * p/s) (luciferase (Luc) mRNA [1]) | Total Flux 3 hours (luciferase (Luc) mRNA [1]; mice, i.v., 0.5 mg/kg) | Total Flux 6 hours (luciferase (Luc) mRNA [1]; mice, i.v., 0.5 mg/kg) | Total Flux 24 hours (luciferase (Luc) mRNA [1]; mice, i.v., 0.5 mg/kg) | PDI [2] | Size (nm) [2] [nm] | pKa [3] | Total Flux Liver (luciferase (Luc) mRNA [4]) | Total Flux Lung (luciferase (Luc) mRNA [4]) | Total Flux Spleen (luciferase (Luc) mRNA [4]) | EE (%) [5] [%] | Lipid/MC3 AUC (luciferase (Luc) mRNA [1]) | AUC (p/s * h) (luciferase (Luc) mRNA [1]) | Fold increase in total body Luc Flux relative to MC3 at 6 h (luciferase (Luc) mRNA [1]) | flux at all timepoints measured (luciferase (Luc) mRNA [1]; mice, i.v., 0.5 mg/kg, 3, 6 and 24 hour, in words) | Flux in the liver (luciferase (Luc) mRNA [4]; i.v., in words) | Flux in the spleen (luciferase (Luc) mRNA [4]; i.v., in words)
1 | CCCCCCCCCOC(=O)CCCCCCCN(CCCCCCCC(=O)OC(CCCCCCCC)CCCCCCCC)CCN1CCOCC1 [Compound 103, Heptadecan-9-yl 8-((2-morpholinoethyl)(8-(nonyloxy)-8-oxooctyl)amino)octanoate] | 0.250 | 0.291 | 2.4E+10 | 2.68E+09 | 1.82E+09 | 9.45E+07 | 0.160 | 78.8 | 6.13 | 8.48E+07 | 2.06E+05 | 2.65E+06 | 90.77 |  |  |  |  |  | 
2 | CCCCCCCCCOC(=O)CCCCCCCN(CCO)CCCCCCCCCOC(=O)C(CCCCCC)CCCCCCCC (stereo not drawn) [Compound 134, 9-((2-Hydroxyethyl)(8-(nonyloxy)-8-oxooctyl)amino)nonyl 2-hexyldecanoate] | 3.99 | 4.16 | 3.43E+11 | 2.01E+10 | 2.91E+10 | 8.00E+08 | 0.110 | 85.6 | 6.66 | 1.73E+09 | 2.82E+06 | 1.85E+07 | 94.62 |  |  |  |  |  | 
3 | CCCCCCCCCOC(=O)CCCCCCCN(CCO)CCCCCCC/C=C\C(CCCCCCCC)CCCCCCCC [Compound 152, Nonyl (Z)-8-((2-hydroxyethyl)(10-octyloctadec-8-en-1-yl)amino)octanoate] |  |  |  | 1.56E+09 | 2.45E+09 | 4.95E+07 | 0.072 | 62.6 | 6.465 | 1.43E+08 | 3.16E+05 | 6.63E+06 | 99.29 | 0.15 | 2.855E+010 |  |  |  | 
4 | CCCCCCCCCOC(=O)CCCCCCCN(CCO)CCCCCCCCCOP(=O)(OCCCCCCCCC)OCCCCCCCCC [Compound 127, Nonyl 8-((9-((bis(nonyloxy)phosphoryl)oxy)nonyl)(2-hydroxyethyl)amino)octanoate] |  |  |  | 3.81E+09 | 2.09E+09 | 4.56E+08 | 0.19 | 110.4 | 6.98 | 1.94E+08 | 5.26E+06 | 3.21E+08 | 89.5 |  |  | 0.094 |  |  | 
5 | CCCCCCCCCOC(=O)CCCCCCCN(CCO)CCCCCCCOP(=O)(OCCCCCCCC)OCCCCCCCC [Compound 131, Nonyl 8-((7-((bis(octyloxy)phosphoryl)oxy)heptyl)(2-hydroxyethyl)amino)octanoate] | 1.05 | 1.13 | 9.29E+10 | 6.97E+09 | 7.64E+09 | 2.47E+08 | 0.095 | 167.9 | 7.76 | 3.52E+08 | 1.45E+07 | 8.32E+08 | 75.44 |  |  |  |  |  | 
6 | CCCCCCCCCOC(=O)CCCN(C)CCCCCCCC(=O)OC(CCCCCCCC)CCCCCCCC [Compound 126, Heptadecan-9-yl 8-(methyl(4-(nonyloxy)-4-oxobutyl)amino)octanoate] |  |  |  | 7.59E+09 | 1.09E+10 | 1.40E+08 | 0.18 | 77.4 | 6.00 | 7.41E+08 | 2.68E+06 | 1.87E+07 | 96.8 |  |  |  |  |  | 
7 | CCCCCCCCCOC(=O)CCCCCCCN(CCO)CCCCCCCC(=O)OC(C)(C)C [Compound 158, tert-Butyl 8-((2-hydroxyethyl)(8-(nonyloxy)-8-oxooctyl)amino)octanoate] |  |  |  | 2.69E+05 | 9.82E+05 | 1.55E+05 | 0.080 | 251.8 | 6.953 | 1.99E+05 | 1.71E+04 | 1.17E+05 | 35.70 | <0.01 | 1.211E+007 |  | significantly lower flux |  | 
8 | CCCCCCCCOP(=O)(OCCCCCCCC)OCCCCCCCN(CCO)CCCCCCCC(=O)OC(C)CCCCCCCC (stereo not drawn) [Compound 132, Decan-2-yl 8-((7-((bis(octyloxy)phosphoryl)oxy)heptyl)(2-hydroxyethyl)amino)octanoate] | 0.187 | 0.212 | 1.75E+10 | 1.77E+09 | 1.36E+09 | 5.31E+07 | 0.180 | 298.0 | 7.34 | 1.49E+08 | 1.39E+07 | 3.37E+08 | 30.77 |  |  |  |  |  | 
9 | CCCCCCCCC(CCCCCCCC)OC(=O)CCCCCCCN(CCO)CCCCCC(=O)OC1CCC(CCCCC)CC1 (stereo not drawn) [Compound 68, Heptadecan-9-yl 8-((2-hydroxyethyl)(6-oxo-6-((4-pentylcyclohexyl)oxy)hexyl)amino)octanoate] |  |  |  | 5.22E+10 | 8.16E+10 | 2.15E+09 | 0.14 | 76.8 | 6.69 | 8.42E+09 | 3.98E+07 | 6.69E+07 | 97.7 |  |  | 3.68 |  |  | 
10 | CCCCCCCCC(CCCCCCCC)OC(=O)CCCCCCCN(C)CCCCCCCCCC(=O)OCCCCCCC [Compound 149, Heptyl 10-((8-(heptadecan-9-yloxy)-8-oxooctyl)(methyl)amino)decanoate] |  |  |  | 1.01E+10 | 8.33E+09 | 3.45E+08 | 0.110 | 62.1 | 6.284 | 1.11E+09 | 2.69E+06 | 2.71E+07 | 98.00 | 0.55 | 1.057E+011 |  |  |  | 
11 | CCCCCCCCCOC(=O)CCCCCCCN(CCO)CCCCCCCC(=O)OC(CCCCC)CCCCCCCC (stereo not drawn) [Compound 33, nonyl 8-((2-hydroxyethyl)(8-oxo-8-(tetradecan-6-yloxy)octyl)amino) octanoate] |  |  |  | 6.53E+10 | 1.20E+11 | 3.71E+09 | 0.13 | 107.3 | 6.80 | 1.78E+10 | 2.92E+07 | 3.77E+08 | 95.66 |  |  | 2.74 |  | highest | highest
12 | CCCCCCCCCOC(=O)CCCCCCCN(CCCCCCCC(=O)OC(CCCCCCCC)CCCCCCCC)CCN1CCN(C)CC1 [Compound 101, Heptadecan-9-yl 8-((2-(4-methylpiperazin-1-yl)ethyl)(8-(nonyloxy)-8-oxooctyl)amino)octanoate] | 0.019 | 0.022 | 1.8E+09 | 1.89E+08 | 1.41E+08 | 3.64E+06 | 0.230 | 91.7 | 7.27 | 1.27E+07 | 1.77E+05 | 5.60E+06 | 98.96 |  |  |  |  |  | 
